The results in this text go back to patent US20240025875A1, “A COMPOUND AS A THYROID HORMONE BETA RECEPTOR AGONIST AND USE THEREOF” (SUNSHINE LAKE PHARMA CO., LTD., priority 2020, published 2024).

Data set [1] in a line: Pharmacokinetic determination in SD rats (i.v. and i.g.). Format: in vivo. Conditions: for AUC(0-inf) / AUC(0-t) / Cmax / clearance / half-life / Vd: male, Sprague-Dawley (SD), rat, plasma; for Vd: read-out: VSS. An excerpt: Test purposes: The following method was used to determine the pharmacokinetics of the compound of the present invention.
Test Materials: • Experimental reagents and test samples used: Propranolol (internal standard), methanol, ammonium acetate, K2EDTA (potassium ethylenediaminetetraacetic acid), formic acid, acetonitrile MTBE (methyl tert-butyl ether). KolliphorHS15 (macrogol 12 hydroxystearate), DMSO (dimethyl sulfoxide) are commercially available • SD rats: male, 180-220 g, 7-8 weeks old, purchased from Human Slack Experimental Animal Co., Ltd.
Each test sample prepared was completely dissolved in a mixture of 5% DMSO+5% KolliphorHS 15+90% Saline according solubility property thereof.
Samples were processed by liquid-liquid extraction, chromatographically separated, quantitatively analyzed by multiple reaction ion monitoring (MRM) on a triple quadrupole tandem mass spectrometer, and the concentration of the results was calculated by instrument quantitative software.
30 μL of plasma sample was precisely pipetted, added with 250 μL of internal standard, and vortexed to mix thoroughly. Plasma samples was extracted once with 1 mL of MTBE, centrifuged at 13,000 rpm for 2 min at 4° C. 800 μL of the supernatant was sucked out, evaporated to dryness in a 96-well nitrogen blower, and the residue was reconstituted with 150 μL of methanol/water (v/v=50/50), vortexed to mix, and injected with an injection volume of 8 μL.
LC/MS/MS method was used to determine the content of the test compound in rat plasma after administration of different compounds.
Pharmacokinetic parameters were calculated using a noncompartmental method by WinNonLin 6.1 software.

The target in a further data set is T1, TRβ (Homo sapiens, UniProt P10828).
T1 construct: 5 μL of 4×TR beta/alfa-LBD; purchased Invitrogen PV4686
T1 sequence (P10828 217-461 limits assumed): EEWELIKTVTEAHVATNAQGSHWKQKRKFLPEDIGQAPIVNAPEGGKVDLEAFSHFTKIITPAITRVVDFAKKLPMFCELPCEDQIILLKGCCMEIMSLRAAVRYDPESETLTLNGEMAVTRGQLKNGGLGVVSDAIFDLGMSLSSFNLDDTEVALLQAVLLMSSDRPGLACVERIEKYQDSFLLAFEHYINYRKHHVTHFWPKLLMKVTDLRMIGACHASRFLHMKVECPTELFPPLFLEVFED
Put plainly: LanthaScreen TR-FRET Thyroid Receptor beta Coactivator Assay (in vitro binding activity). The following applies: TR beta-LBD. As for the experimental part: (§1) 2. Detection of the Binding Activity of the Compound of the Present Invention to TRα or TRβ In Vitro
(§2) Test Materials • LanthaScreen TR-FRET Thyroid Receptor beta Coactivator Assay kit was purchased from Invitrogen, Cat. No. PV4686; • LanthaScreen TR-FRET Thyroid Receptor alfa Coactivator Assay kit was purchased from Invitrogen, Cat. No. PV4687.
(§3) The method was experimented with LanthaScreen TR-FRET Thyroid Receptor beta/alfa Coactivator Assay kit. The test compound was dissolved in DMSO and diluted 3 times to a total of 10 concentrations, and then diluted with TR-FRET Coregulator Buffer C in the kit to form a solution containing 2% DMSO, 10 μL of the solution containing 2% DMSO was taken into a 384-well plate, then 5 μL of 4×TR beta/alfa-LBD, 5 μL of a mixture containing 0.4 μM fluorescein-SRC2-2 and 8 nM Tb anti-GST antibody were added into each well, mixed thoroughly, and incubated at room temperature for 1 h in the dark. After 1 h, BMG LABTECH's PHERAstar FSX microplate reader was used to read the fluorescence value (RFU) at […]. The TR-FRET ratio was calculated by dividing the emission signal at 520 nm by the emission signal at 495 nm. Graph Pad Prism 5 software was used to draw the curve and calculate the EC50 value. The in vitro binding activity test results of some of the compounds of the examples of the present invention are shown in Table 1 below.

Another data set has as its target T2, TRα (Homo sapiens, UniProt P10827).
T2 construct: 5 μL of 4×TR beta/alfa-LBD; purchased Invitrogen PV4687
Put plainly: LanthaScreen TR-FRET Thyroid Receptor alfa Coactivator Assay (in vitro binding activity). The following applies: TR alfa-LBD. On the procedure:
as §1, §2, §3

Some results are limits rather than exact numbers.

T2 sequence (P10827 163-410 isoform P10827-2 limits assumed, other chains not shown): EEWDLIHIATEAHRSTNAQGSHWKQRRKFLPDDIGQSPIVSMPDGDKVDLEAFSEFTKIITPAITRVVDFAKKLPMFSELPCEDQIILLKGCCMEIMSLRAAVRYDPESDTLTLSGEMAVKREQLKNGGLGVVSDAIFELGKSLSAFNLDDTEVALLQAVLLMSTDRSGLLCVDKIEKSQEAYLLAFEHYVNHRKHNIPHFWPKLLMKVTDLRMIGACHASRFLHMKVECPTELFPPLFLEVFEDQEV

For the molecule `O=C1c2ccc(Oc3c(Cl)cc(-n4ncc(=O)[nH]c4=O)cc3Cl)cc2CCN1Cc1ccc(Cl)cc1` [Example 37, 2-(3,5-dichloro-4-((2-(4-chlorobenzyl)-1-oxo-1,2,3,4-tetrahydroisoquinolin-6-yl)oxy)phenyl)-1,2,4-triazine-3,5(2H,4H)-dione], the F in data set [1] (ig, 5 mg/kg) worked out at 116.3%. In data set [1] (iv, 1 mg/kg), the AUC(0-inf) stood at 21100 ng·h/mL, the area under the curve AUC(0-t) was determined as 20900 ng·h/mL, the maximum concentration (Cmax) was 4200 ng/mL and the clearance came out at 0.789 mL/min/kg. In data set [1] (iv, 1 mg/kg), the half-life was 3.61 h and the Vd came to 0.212 L/kg. Moreover, in data set [1] (po, ig, 5 mg/kg), the AUC(0-inf) was 122000 ng·h/mL, the AUC(0-t) was 121000 ng·h/mL, the peak level (Cmax) was 12300 ng/mL and the half-life was 3.5 h. Moreover, the EC50 at TRβ was found to be 0.043 µM. This molecule had a half-maximal effective concentration (EC50) at TRα of more than 100 µM.
Molecule `Cc1ccc(CN2CCc3cc(Oc4c(Cl)cc(-n5ncc(=O)[nH]c5=O)cc4Cl)ccc3C2=O)cc1` [Example 21, 2-(3,5-dichloro-4-((2-(4-methylbenzyl)-1-oxo-1,2,3,4-tetrahydroisoquinolin-6-yl)oxy)phenyl)-1,2,4-triazine-3,5(2H,4H)-dione] came in with a F in data set [1] (ig, 5 mg/kg) of 81.9%. Besides, in data set [1] (iv, 1 mg/kg), the area under the curve AUC(0-inf) was determined as 1020 ng·h/mL, the AUC(0-t) was determined as 1020 ng·h/mL, the maximum concentration (Cmax) was 2760 ng/mL and the clearance is 16.3 mL/min/kg. In data set [1] (iv, 1 mg/kg), the half-life was 1.02 h and the Vd came to 0.308 L/kg. In data set [1] (po, ig, 5 mg/kg), the AUC(0-inf) came to 4180 ng·h/mL, the AUC(0-t) turned out to be 4160 ng·h/mL, the Cmax amounted to 4730 ng/mL and the half-life was 1.44 h. The same molecule gave a half-maximal effective concentration (EC50) on TRβ of 0.019 µM. Moreover, at TRα, the EC50 was more than 100 µM.
In data set [1] (ig, 5 mg/kg), `O=C1c2ccc(Oc3c(Cl)cc(-n4ncc(=O)[nH]c4=O)cc3Cl)cc2CCN1Cc1ccncc1` [Example 24, 2-(3,5-dichloro-4-((1-oxo-2-(pyridin-4-ylmethyl)-1,2,3,4-tetrahydroisoquinolin-6-yl)oxy)phenyl)-1,2,4-triazine-3,5(2H,4H)-dione] had an F of 117.7%. Further, in data set [1] (iv, 1 mg/kg), the AUC(0-inf) worked out at 3790 ng·h/mL, the AUC(0-t) worked out at 3720 ng·h/mL, the highest concentration (Cmax) stood at 4020 ng/mL and the clearance was 4.39 mL/min/kg. In data set [1] (iv, 1 mg/kg), the half-life is 1.16 h and the Vd stood at 0.337 L/kg. In data set [1] (po, ig, 5 mg/kg), this molecule showed an AUC(0-inf) of 223000 ng·h/mL, an AUC(0-t) of 21900 ng·h/mL, a Cmax of 7790 ng/mL and a half-life of 2.65 h. This molecule also yielded a half-maximal effective concentration (EC50) on TRβ of 0.075 µM. At TRα, this molecule had an EC50 of more than 100 µM.
Molecule `O=C1c2ccc(Oc3c(Cl)cc(-n4ncc(=O)[nH]c4=O)cc3Cl)cc2CCN1Cc1cccc(OC(F)(F)F)c1` [Example 43, 2-(3,5-dichloro-4-((1-oxo-2-(3-(trifluoromethoxy)benzyl)-1,2,3,4-tetrahydroisoquinolin-6-yl)oxy)phenyl)-1,2,4-triazine-3,5(2H,4H)-dione] displayed a F in data set [1] (ig, 5 mg/kg) of 68.4%. Besides, in data set [1] (iv, 1 mg/kg), the total exposure AUC(0-inf) was 47700 ng·h/mL, the AUC(0-t) amounted to 39800 ng·h/mL, the highest level (Cmax) was 3410 ng/mL and the clearance came to 0.349 mL/min/kg. Further, in data set [1] (iv, 1 mg/kg), the half-life is 9.52 h and the Vd is 0.26 L/kg. In addition, in data set [1] (po, ig, 5 mg/kg), the AUC(0-inf) turned out to be 212000 ng·h/mL, the area under the curve AUC(0-t) was 134000 ng·h/mL, the peak level (Cmax) was 8120 ng/mL and the half-life was 15.7 h. For the same molecule, on TRβ, the concentration for a half-maximal effect (EC50) was determined as 0.031 µM. Besides, the EC50 at TRα is more than 100 µM.
For the molecule `O=C1c2ccc(Oc3c(Cl)cc(-n4ncc(=O)[nH]c4=O)cc3Cl)cc2CCN1Cc1cccnc1` [Example 45, 2-(3,5-dichloro-4-((1-oxo-2-(pyridin-3-ylmethyl)-1,2,3,4-tetrahydroisoquinolin-6-yl)oxy)phenyl)-1,2,4-triazine-3,5(2H,4H)-dione], the F in data set [1] (ig, 5 mg/kg) came to 163.9%. In data set [1] (iv, 1 mg/kg), the AUC(0-inf) stood at 2510 ng·h/mL, the area under the curve AUC(0-t) was 2460 ng·h/mL, the Cmax came out at 1780 ng/mL and the clearance was determined as 6.65 mL/min/kg. For the same molecule, in data set [1] (iv, 1 mg/kg), the half-life was 1.15 h and the Vd worked out at 0.57 L/kg. Moreover, in data set [1] (po, ig, 5 mg/kg), the AUC(0-inf) stood at 20600 ng·h/mL, the AUC(0-t) is 20300 ng·h/mL, the concentration peaked (Cmax) at 5320 ng/mL and the half-life was 4.14 h. At TRβ, this molecule yielded a concentration for a half-maximal effect (EC50) of 0.061 µM. The same molecule yielded an EC50 on TRα of more than 100 µM.
The molecule `O=C1c2ccc(Oc3c(Cl)cc(-n4ncc(=O)[nH]c4=O)cc3Cl)cc2CCN1c1ccccc1F` [Example 44, 2-(3,5-dichloro-4-((2-(2-fluorophenyl)-1-oxo-1,2,3,4-tetrahydroisoquinolin-6-yl)oxy)phenyl)-1,2,4-triazine-3,5(2H,4H)-dione] came in with a F in data set [1] (ig, 5 mg/kg) of 133.3%. In data set [1] (iv, 1 mg/kg), this molecule came in with an area under the curve AUC(0-inf) of 2150 ng·h/mL, an area under the curve AUC(0-t) of 2110 ng·h/mL, a Cmax of 5430 ng/mL and a clearance of 7.74 mL/min/kg. In data set [1] (iv, 1 mg/kg), the half-life is 2.11 h and the Vd turned out to be 0.4 L/kg. Moreover, in data set [1] (po, ig, 5 mg/kg), the AUC(0-inf) turned out to be 14300 ng·h/mL, the AUC(0-t) came to 13900 ng·h/mL, the highest concentration (Cmax) amounted to 9030 ng/mL and the half-life is 1.64 h. Moreover, it took 0.0097 µM to reach a half-maximal effect at TRβ (EC50). This molecule also returned a concentration giving a half-maximal response (EC50) on TRα of more than 100 µM.
Regarding `Cc1ccc(CN2CCc3cc(Oc4c(Cl)cc(-n5nc(C#N)c(=O)[nH]c5=O)cc4Cl)ccc3C2=O)cc1` [Example 21d, 2-(3,5-dichloro-4-((2-(4-methylbenzyl)-1-oxo-1,2,3,4-tetrahydroisoquinolin-6-yl)oxy)phenyl)-3,5-dioxo-2,3,4,5-tetrahydro-1,2,4-triazine-6-carbonitrile], the EC50 was 0.368 µM on TRβ and more than 100 µM on TRα.
For `O=C1c2ccc(Oc3c(Cl)cc(-n4ncc(=O)[nH]c4=O)cc3Cl)cc2CCN1c1ccncc1` [Example 48, 2-(3,5-dichloro-4-((1-oxo-2-(pyridin-4-yl)-1,2,3,4-tetrahydroisoquinolin-6-yl)oxy)phenyl)-1,2,4-triazine-3,5(2H,4H)-dione], the EC50 is 0.065 µM on TRβ and 0.558 µM on TRα.
As for `N#Cc1nn(-c2cc(Cl)c(Oc3ccc4c(c3)CCN(CC3CCOCC3)C4=O)c(Cl)c2)c(=O)[nH]c1=O` [Example 12, 2-(3,5-Dichloro-4-((1-oxo-2-((tetrahydro-2H-pyran-4-yl)methyl)-1,2,3,4-tetrahydroisoquinolin-6-yl)oxy)phenyl)-3,5-dioxo-2,3,4,5-tetrahydro-1,2,4-triazine-6-carbonitrile], the EC50 at TRβ is 0.021 µM; at TRα, 0.451 µM.
`N#Cc1nn(-c2cc(Cl)c(Oc3ccc4c(c3)CCN(COCC(F)F)C4=O)c(Cl)c2)c(=O)[nH]c1=O` [Example 15, 2-(3,5-dichloro-4-((1-oxo-2-((2,2-difluoroethoxy)methyl)-1,2,3,4-tetrahydroisoquinolin-6-yl)oxy)phenyl)-3,5-dioxo-2,3,4,5-tetrahydro-1,2,4-triazine-6-carbonitrile]: the EC50 stood at 0.024 µM at TRβ and 0.176 µM on TRα.
On the same counts, the results for `O=C1c2ccc(Oc3c(Cl)cc(-n4ncc(=O)[nH]c4=O)cc3Cl)cc2CCN1Cc1ccccc1F` [Example 33, 2-(3,5-dichloro-4-((2-(2-fluorobenzyl)-1-oxo-1,2,3,4-tetrahydroisoquinolin-6-yl)oxy)phenyl)-1,2,4-triazine-3,5(2H,4H)-dione] are 0.017 µM and 0.156 µM.
